Experimental data from PMC11864979, “First-in-class ultralong-target-residence-time p38α inhibitors as a mitosis-targeted therapy for colorectal cancer” (Nature Cancer, 2025).
Like-named read-outs stand apart in the source and are kept apart here.

What was measured:
Test in all cases: selectivity profiling in a panel of 340 wild-type kinases (Reaction Biology Europe)
Format in all cases: binding
340 wild-type kinases [1] = target: T1, 340 wild-type kinases (Homo sapiens, UniProt O96013)
T1 construct: purchased Reaction Biology Europe
T1 sequence (O96013 whole entry): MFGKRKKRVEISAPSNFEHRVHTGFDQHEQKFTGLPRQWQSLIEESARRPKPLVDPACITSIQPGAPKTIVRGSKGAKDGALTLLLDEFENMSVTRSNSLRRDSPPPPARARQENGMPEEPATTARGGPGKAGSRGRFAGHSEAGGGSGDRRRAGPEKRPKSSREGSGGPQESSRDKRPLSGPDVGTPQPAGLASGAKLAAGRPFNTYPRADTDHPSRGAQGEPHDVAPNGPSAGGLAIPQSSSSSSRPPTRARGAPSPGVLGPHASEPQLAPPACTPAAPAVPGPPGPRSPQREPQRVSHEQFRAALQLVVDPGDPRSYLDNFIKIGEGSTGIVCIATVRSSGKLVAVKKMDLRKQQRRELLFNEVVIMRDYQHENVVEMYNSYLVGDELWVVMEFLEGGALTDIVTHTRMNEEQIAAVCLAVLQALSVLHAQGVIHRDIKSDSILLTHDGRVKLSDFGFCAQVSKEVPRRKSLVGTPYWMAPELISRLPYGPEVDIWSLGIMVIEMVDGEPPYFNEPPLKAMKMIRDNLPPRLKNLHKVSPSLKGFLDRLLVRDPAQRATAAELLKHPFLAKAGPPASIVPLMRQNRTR

340 wild-type kinases [2] = target: T2, 340 wild-type kinases (Homo sapiens, UniProt P04629)
T2 construct: purchased Reaction Biology Europe
T2 sequence (P04629 33-796): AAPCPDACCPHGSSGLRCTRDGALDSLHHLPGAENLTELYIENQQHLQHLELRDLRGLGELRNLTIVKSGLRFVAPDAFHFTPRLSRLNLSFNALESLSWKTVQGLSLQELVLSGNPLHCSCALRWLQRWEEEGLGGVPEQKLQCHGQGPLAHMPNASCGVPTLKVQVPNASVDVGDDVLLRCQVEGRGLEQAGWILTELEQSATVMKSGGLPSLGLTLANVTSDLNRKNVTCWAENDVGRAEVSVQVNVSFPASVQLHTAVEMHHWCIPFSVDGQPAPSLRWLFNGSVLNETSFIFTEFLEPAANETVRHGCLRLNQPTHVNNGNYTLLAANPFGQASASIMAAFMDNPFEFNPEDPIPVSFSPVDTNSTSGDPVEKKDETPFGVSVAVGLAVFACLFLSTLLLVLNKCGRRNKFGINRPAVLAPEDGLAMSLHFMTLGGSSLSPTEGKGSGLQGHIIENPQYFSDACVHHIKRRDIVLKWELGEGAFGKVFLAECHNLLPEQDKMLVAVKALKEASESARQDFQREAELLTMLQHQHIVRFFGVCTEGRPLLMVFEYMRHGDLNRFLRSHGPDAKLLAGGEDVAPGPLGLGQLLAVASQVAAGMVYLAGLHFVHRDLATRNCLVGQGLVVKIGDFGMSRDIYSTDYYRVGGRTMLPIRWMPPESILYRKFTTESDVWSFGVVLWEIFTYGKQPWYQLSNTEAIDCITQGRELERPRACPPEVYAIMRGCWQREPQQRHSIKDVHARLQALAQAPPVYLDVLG

340 wild-type kinases [3] = target: T3, 340 wild-type kinases (Homo sapiens, UniProt P37023)
T3 construct: purchased Reaction Biology Europe
T3 sequence (P37023 22-503): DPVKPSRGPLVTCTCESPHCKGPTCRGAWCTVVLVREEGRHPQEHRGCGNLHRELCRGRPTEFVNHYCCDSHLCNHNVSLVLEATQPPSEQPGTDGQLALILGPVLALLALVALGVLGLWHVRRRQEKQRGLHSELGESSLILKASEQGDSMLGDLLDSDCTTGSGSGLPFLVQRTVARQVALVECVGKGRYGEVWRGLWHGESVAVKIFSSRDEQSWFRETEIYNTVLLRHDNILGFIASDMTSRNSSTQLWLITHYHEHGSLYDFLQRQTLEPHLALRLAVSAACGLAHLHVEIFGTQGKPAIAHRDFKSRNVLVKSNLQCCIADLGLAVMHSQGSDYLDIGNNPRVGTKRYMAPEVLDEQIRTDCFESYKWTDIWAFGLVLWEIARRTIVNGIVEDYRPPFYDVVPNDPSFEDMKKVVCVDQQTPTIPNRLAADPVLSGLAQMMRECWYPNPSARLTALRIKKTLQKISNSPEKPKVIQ

340 wild-type kinases [4] = target: T4, 340 wild-type kinases (Homo sapiens, UniProt Q13237)
T4 construct: purchased Reaction Biology Europe
T4 sequence (Q13237 1-762): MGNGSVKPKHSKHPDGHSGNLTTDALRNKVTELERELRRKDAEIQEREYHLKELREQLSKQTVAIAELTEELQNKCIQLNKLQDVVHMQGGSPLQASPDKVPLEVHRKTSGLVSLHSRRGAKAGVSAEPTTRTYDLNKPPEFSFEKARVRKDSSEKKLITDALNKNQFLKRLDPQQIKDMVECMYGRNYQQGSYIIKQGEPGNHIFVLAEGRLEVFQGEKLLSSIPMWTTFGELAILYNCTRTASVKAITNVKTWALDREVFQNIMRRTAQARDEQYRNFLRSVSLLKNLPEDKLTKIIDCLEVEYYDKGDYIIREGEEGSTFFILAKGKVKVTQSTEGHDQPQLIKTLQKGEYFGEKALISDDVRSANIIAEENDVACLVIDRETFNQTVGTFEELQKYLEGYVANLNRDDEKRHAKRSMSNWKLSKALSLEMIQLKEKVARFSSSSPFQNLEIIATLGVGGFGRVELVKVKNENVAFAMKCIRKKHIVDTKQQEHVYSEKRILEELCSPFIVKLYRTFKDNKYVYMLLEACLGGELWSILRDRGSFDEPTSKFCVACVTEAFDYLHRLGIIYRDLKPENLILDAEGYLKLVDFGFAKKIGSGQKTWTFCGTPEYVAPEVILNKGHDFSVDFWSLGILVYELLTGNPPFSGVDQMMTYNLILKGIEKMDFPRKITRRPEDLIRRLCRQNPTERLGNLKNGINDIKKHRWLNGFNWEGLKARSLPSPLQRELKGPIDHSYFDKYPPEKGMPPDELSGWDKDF

340 wild-type kinases [5] = target: T5, 340 wild-type kinases (Homo sapiens, UniProt Q9UKI8)
T5 construct: purchased Reaction Biology Europe
T5 sequence (Q9UKI8 1-766): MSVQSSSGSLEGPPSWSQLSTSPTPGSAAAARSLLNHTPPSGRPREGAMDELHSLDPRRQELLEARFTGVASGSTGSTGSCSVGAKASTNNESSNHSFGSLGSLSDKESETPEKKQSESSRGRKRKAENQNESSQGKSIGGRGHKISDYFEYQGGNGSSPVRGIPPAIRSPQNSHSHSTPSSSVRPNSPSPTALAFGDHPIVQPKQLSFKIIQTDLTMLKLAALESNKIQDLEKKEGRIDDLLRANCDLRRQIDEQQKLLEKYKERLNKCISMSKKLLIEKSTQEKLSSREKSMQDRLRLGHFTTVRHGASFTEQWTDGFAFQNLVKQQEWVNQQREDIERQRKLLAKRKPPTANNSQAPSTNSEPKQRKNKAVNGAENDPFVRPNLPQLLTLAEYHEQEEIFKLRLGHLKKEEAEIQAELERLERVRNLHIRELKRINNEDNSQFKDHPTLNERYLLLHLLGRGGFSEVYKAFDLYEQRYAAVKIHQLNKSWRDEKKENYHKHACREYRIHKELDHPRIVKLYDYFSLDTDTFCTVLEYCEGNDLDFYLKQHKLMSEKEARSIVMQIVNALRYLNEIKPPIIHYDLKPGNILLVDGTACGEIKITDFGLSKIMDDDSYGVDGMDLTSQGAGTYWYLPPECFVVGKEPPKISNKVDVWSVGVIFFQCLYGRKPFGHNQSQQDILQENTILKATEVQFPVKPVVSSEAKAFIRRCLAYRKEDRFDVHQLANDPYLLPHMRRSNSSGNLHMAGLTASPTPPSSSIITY

340 wild-type kinases [6] = target: T6, 340 wild-type kinases (Homo sapiens, UniProt P49336)
T6 construct: purchased Reaction Biology Europe
T6 sequence (P49336 whole entry): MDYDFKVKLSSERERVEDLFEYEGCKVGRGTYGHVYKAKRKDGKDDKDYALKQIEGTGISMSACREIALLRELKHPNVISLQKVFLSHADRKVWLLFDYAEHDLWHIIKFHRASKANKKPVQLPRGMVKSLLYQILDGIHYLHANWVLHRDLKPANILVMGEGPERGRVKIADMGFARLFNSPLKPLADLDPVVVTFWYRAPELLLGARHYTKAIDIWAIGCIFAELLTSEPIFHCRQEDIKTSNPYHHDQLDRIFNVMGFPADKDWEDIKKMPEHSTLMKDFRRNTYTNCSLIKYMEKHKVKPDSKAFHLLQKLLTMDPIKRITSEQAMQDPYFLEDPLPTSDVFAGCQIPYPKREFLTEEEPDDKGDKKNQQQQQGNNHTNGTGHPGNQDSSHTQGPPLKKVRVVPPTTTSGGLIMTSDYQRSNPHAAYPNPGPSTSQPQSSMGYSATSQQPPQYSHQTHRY

340 wild-type kinases [7] = target: T7, 340 wild-type kinases (Homo sapiens, UniProt Q96KB5)
T7 construct: purchased Reaction Biology Europe
T7 sequence (Q96KB5 1-322): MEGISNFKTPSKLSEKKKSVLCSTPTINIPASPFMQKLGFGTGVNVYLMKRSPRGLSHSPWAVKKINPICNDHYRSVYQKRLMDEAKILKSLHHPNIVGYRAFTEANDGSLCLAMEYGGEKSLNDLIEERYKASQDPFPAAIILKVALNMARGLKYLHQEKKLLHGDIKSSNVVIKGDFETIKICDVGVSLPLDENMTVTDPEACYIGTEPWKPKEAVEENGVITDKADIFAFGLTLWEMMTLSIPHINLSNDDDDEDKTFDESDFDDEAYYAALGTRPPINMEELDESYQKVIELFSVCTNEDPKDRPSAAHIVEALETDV

340 wild-type kinases [8] = target: T8, 340 wild-type kinases (Homo sapiens, UniProt P24941)
T8 construct: purchased Reaction Biology Europe

**Q.** Which remaining activity at 0.2 µM (340 wild-type kinases [1]; 0.2 µM 2015, read-out: PAK4 residual activity) does the source give for `CNC(=O)c1ccc2c(c1)C(=O)c1ccc(Nc3ccc(F)c(NC(=O)C4CC4)c3)cc1CC2` [Compound 2015] here?
**A.** The remaining activity at 0.2 µM was 92.5%.

**Q.** And the remaining activity at 1 µM (340 wild-type kinases [1]; 1 µM 2015, read-out: PAK4 residual activity)?
**A.** The remaining activity at 1 µM was 85.8%.

**Q.** What about the remaining activity at 0.2 µM (340 wild-type kinases [1]; PAK4, 0.2 µM, read-out: residual activity) of the same compound?
**A.** Its remaining activity at 0.2 µM is 92.5%.

**Q.** And the remaining activity at 1 µM (340 wild-type kinases [1]; PAK4, 1 µM, read-out: residual activity)?
**A.** Its remaining activity at 1 µM is 85.8%.

**Q.** What about the remaining activity at 0.2 µM (340 wild-type kinases [2]; 0.2 µM 2015, read-out: TRKA residual activity) of the same compound?
**A.** Its remaining activity at 0.2 µM is 109%.

**Q.** And the remaining activity at 1 µM (340 wild-type kinases [2]; 1 µM 2015, read-out: TRKA residual activity)?
**A.** The remaining activity at 1 µM was 96.5%.

**Q.** What about the remaining activity at 0.2 µM (340 wild-type kinases [2]; TRKA, 0.2 µM, read-out: residual activity) of the same compound?
**A.** The remaining activity at 0.2 µM was 109%.

**Q.** And the remaining activity at 1 µM (340 wild-type kinases [2]; TRKA, 1 µM, read-out: residual activity)?
**A.** Its remaining activity at 1 µM is 96.5%.

**Q.** And the remaining activity at 0.2 µM (340 wild-type kinases [3]; 0.2 µM 2015, read-out: ACVRL1 residual activity)?
**A.** The remaining activity at 0.2 µM was 100%.

**Q.** And the remaining activity at 1 µM (340 wild-type kinases [3]; 1 µM 2015, read-out: ACVRL1 residual activity)?
**A.** The remaining activity at 1 µM was 102%.

**Q.** And the remaining activity at 0.2 µM (340 wild-type kinases [3]; ACVRL1, 0.2 µM, read-out: residual activity)?
**A.** Its remaining activity at 0.2 µM is 100%.

**Q.** And the remaining activity at 1 µM (340 wild-type kinases [3]; ACVRL1, 1 µM, read-out: residual activity)?
**A.** The remaining activity at 1 µM was 102%.

**Q.** What about the remaining activity at 0.2 µM (340 wild-type kinases [4]; 0.2 µM 2015, read-out: PRKG2 residual activity) of the same compound?
**A.** Its remaining activity at 0.2 µM is 112%.

**Q.** What about the remaining activity at 1 µM (340 wild-type kinases [4]; 1 µM 2015, read-out: PRKG2 residual activity) of the same compound?
**A.** The remaining activity at 1 µM was 96.9%.

**Q.** And the remaining activity at 0.2 µM (340 wild-type kinases [4]; PRKG2, 0.2 µM, read-out: residual activity)?
**A.** The remaining activity at 0.2 µM was 112%.

**Q.** What about the remaining activity at 1 µM (340 wild-type kinases [4]; PRKG2, 1 µM, read-out: residual activity) of the same compound?
**A.** The remaining activity at 1 µM was 96.9%.

**Q.** What about the remaining activity at 0.2 µM (340 wild-type kinases [5]; 0.2 µM 2015, read-out: TLK1 residual activity) of the same compound?
**A.** Its remaining activity at 0.2 µM is 122%.

**Q.** What about the remaining activity at 1 µM (340 wild-type kinases [5]; 1 µM 2015, read-out: TLK1 residual activity) of the same compound?
**A.** The remaining activity at 1 µM was 105%.

**Q.** What about the remaining activity at 0.2 µM (340 wild-type kinases [5]; TLK1, 0.2 µM, read-out: residual activity) of the same compound?
**A.** Its remaining activity at 0.2 µM is 122%.

**Q.** What about the remaining activity at 1 µM (340 wild-type kinases [5]; TLK1, 1 µM, read-out: residual activity) of the same compound?
**A.** Its remaining activity at 1 µM is 105%.

**Q.** What about the remaining activity at 0.2 µM (340 wild-type kinases [6]; 0.2 µM 2015, read-out: CDK8/CycC residual activity) of the same compound?
**A.** Its remaining activity at 0.2 µM is 92.5%.

**Q.** And the remaining activity at 1 µM (340 wild-type kinases [6]; 1 µM 2015, read-out: CDK8/CycC residual activity)?
**A.** The remaining activity at 1 µM was 85.2%.

**Q.** And the remaining activity at 0.2 µM (340 wild-type kinases [6]; CDK8/CycC, 0.2 µM, read-out: residual activity)?
**A.** Its remaining activity at 0.2 µM is 92.5%.

**Q.** And the remaining activity at 1 µM (340 wild-type kinases [6]; CDK8/CycC, 1 µM, read-out: residual activity)?
**A.** Its remaining activity at 1 µM is 85.2%.

**Q.** And the remaining activity at 0.2 µM (340 wild-type kinases [7]; 0.2 µM 2015, read-out: PBK residual activity)?
**A.** The remaining activity at 0.2 µM was 96.5%.

**Q.** And the remaining activity at 1 µM (340 wild-type kinases [7]; 1 µM 2015, read-out: PBK residual activity)?
**A.** The remaining activity at 1 µM was 79.7%.

**Q.** And the remaining activity at 0.2 µM (340 wild-type kinases [7]; PBK, 0.2 µM, read-out: residual activity)?
**A.** Its remaining activity at 0.2 µM is 96.5%.

**Q.** And the remaining activity at 1 µM (340 wild-type kinases [7]; PBK, 1 µM, read-out: residual activity)?
**A.** Its remaining activity at 1 µM is 79.7%.

**Q.** What about the remaining activity at 0.2 µM (340 wild-type kinases [8]; 0.2 µM 2015, read-out: CDK2/CycA2 residual activity) of the same compound?
**A.** The remaining activity at 0.2 µM was 92.5%.

**Q.** What about the remaining activity at 0.2 µM (340 wild-type kinases [8]; 0.2 µM 2015, read-out: CDK2/CycD1 residual activity) of the same compound?
**A.** Its remaining activity at 0.2 µM is 90.3%.

**Q.** And the remaining activity at 0.2 µM (340 wild-type kinases [8]; 0.2 µM 2015, read-out: CDK2/CycE1 residual activity)?
**A.** The remaining activity at 0.2 µM was 121%.

**Q.** And the remaining activity at 1 µM (340 wild-type kinases [8]; 1 µM 2015, read-out: CDK2/CycA2 residual activity)?
**A.** Its remaining activity at 1 µM is 87.2%.

**Q.** What about the remaining activity at 1 µM (340 wild-type kinases [8]; 1 µM 2015, read-out: CDK2/CycD1 residual activity) of the same compound?
**A.** The remaining activity at 1 µM was 96.5%.

**Q.** What about the remaining activity at 1 µM (340 wild-type kinases [8]; 1 µM 2015, read-out: CDK2/CycE1 residual activity) of the same compound?
**A.** Its remaining activity at 1 µM is 109%.

**Q.** What about the remaining activity at 0.2 µM (340 wild-type kinases [8]; CDK2/CycA2, 0.2 µM, read-out: residual activity) of the same compound?
**A.** The remaining activity at 0.2 µM was 92.5%.

**Q.** What about the remaining activity at 1 µM (340 wild-type kinases [8]; CDK2/CycA2, 1 µM, read-out: residual activity) of the same compound?
**A.** Its remaining activity at 1 µM is 87.2%.

**Q.** What about the remaining activity at 0.2 µM (340 wild-type kinases [8]; CDK2/CycD1, 0.2 µM, read-out: residual activity) of the same compound?
**A.** Its remaining activity at 0.2 µM is 90.3%.

**Q.** And the remaining activity at 1 µM (340 wild-type kinases [8]; CDK2/CycD1, 1 µM, read-out: residual activity)?
**A.** The remaining activity at 1 µM was 96.5%.

**Q.** And the remaining activity at 0.2 µM (340 wild-type kinases [8]; CDK2/CycE1, 0.2 µM, read-out: residual activity)?
**A.** The remaining activity at 0.2 µM was 121%.

**Q.** What about the remaining activity at 1 µM (340 wild-type kinases [8]; CDK2/CycE1, 1 µM, read-out: residual activity) of the same compound?
**A.** Its remaining activity at 1 µM is 109%.
